ChEMBL document CHEMBL1201862, “PubChem BioAssay data set” (2004)
The source made the active and inactive calls.

Legend:
[1] = target: Luciferin 4-monooxygenase (Photinus pyralis, UniProt P08659); assay: Counter Screen for Luciferase-based Assay Positives. [Related pubchem assays: 620, 618, 411 ]
HT-1080 = assay: HT1080 cell viability loss – fluorescence readout (AID 620); assay type: functional, cell-based; conditions: Homo sapiens
[2] = target: T1, Epstein-Barr nuclear antigen 1 (Epstein-Barr virus (strain B95-8) (HHV-4) (Human herpesvirus 4), UniProt P03211); assay: inhibition of EBV nuclear antigen 1 DNA binding – biochemical, fluorescence polarization, 1536-well, dose response (AID 2381); set-up: species or system human gammaherpesvirus 4;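 further: fluorescence polarization of a Cy5 DNA probe bound by EBNA-1 protein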
T1 sequence (P03211 whole entry): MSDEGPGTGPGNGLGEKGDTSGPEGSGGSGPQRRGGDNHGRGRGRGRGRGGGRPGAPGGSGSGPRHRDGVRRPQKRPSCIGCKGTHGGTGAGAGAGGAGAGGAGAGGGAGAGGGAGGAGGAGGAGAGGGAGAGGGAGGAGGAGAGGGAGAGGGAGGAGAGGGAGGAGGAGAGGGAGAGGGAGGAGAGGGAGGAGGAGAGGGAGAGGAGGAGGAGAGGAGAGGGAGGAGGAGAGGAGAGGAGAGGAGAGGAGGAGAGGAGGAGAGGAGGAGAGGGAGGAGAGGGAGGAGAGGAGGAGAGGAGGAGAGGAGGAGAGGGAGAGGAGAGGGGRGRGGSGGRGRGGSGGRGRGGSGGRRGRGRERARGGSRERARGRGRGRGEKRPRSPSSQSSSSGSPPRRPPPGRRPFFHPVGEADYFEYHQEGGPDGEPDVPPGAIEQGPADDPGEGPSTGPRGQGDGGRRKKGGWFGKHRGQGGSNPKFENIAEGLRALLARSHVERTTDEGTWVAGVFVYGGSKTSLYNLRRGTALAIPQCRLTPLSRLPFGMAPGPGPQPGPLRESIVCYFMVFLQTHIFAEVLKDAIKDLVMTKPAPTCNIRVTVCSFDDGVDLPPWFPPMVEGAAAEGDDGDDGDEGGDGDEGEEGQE

[3] = target: T2, Lytic switch protein BZLF1 (Epstein-Barr virus (strain B95-8) (HHV-4) (Human herpesvirus 4), UniProt P03206); assay: inhibition of BZLF1 ZTA DNA binding – biochemical, fluorescence polarization, Epstein-Barr virus, 1536-well, counter-screen for EBNA-1 inhibitor project, dose response (AID 2377); set-up: species or system human gammaherpesvirus 4;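 further: fluorescence polarization of Cy5-labelled ZRE DNA probe bound by purified Zta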
T2 sequence (P03206 whole entry): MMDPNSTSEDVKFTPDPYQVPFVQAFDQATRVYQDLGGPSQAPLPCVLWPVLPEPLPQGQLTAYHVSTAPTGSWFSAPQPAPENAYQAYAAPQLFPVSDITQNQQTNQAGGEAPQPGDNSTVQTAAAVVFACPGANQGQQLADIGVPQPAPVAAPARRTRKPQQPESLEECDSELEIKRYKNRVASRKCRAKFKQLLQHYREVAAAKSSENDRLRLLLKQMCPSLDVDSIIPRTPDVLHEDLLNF

[4] = target: Neurotensin receptor type 1 (Homo sapiens, UniProt P30989); assay type: functional;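 further: Image-based confirmatory dose-response assay measuring agonist activity at NTR1; NTR1-expressing U2OS osteosarcoma cells imaged for beta-arrestin GFP spot formation; agonist potency where compounds increase beta-arrestin recruitment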
[5] = target: Voltage-dependent T-type calcium channel subunit alpha-1H (Homo sapiens, UniProt O95180); assay type: functional;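 further: channel activity triggered by adding a high calcium stimulation buffer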
Coagulation factor XII = target: T3, Coagulation factor XII (Homo sapiens, UniProt P00748); assay type: functional;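 further: activated factor XIIa alpha cleaving a fluorogenic AMC peptide substrate; inhibitor potency from loss of enzyme activity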
T3 sequence (P00748 whole entry): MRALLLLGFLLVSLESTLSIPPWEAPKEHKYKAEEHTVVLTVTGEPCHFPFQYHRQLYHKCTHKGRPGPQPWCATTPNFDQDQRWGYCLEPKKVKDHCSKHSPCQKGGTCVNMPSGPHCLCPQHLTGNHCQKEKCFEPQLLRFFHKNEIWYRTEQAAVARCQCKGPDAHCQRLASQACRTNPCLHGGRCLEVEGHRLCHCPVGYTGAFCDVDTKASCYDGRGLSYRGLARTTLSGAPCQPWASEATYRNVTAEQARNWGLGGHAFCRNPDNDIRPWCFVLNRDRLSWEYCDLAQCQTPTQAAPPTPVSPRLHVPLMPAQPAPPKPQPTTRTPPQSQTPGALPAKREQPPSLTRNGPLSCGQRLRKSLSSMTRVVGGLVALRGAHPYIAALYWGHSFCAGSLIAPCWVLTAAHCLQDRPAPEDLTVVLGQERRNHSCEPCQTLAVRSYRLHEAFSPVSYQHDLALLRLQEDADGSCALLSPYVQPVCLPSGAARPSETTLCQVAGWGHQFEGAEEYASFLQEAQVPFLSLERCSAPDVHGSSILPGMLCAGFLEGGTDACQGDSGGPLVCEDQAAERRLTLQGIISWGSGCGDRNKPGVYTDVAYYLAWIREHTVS

[6] = A Cell Based Secondary Assay To Explore Cytotoxicity of Compounds that Sensitize Mycobacterium Tuberculosis to Beta-Lactam Antibiotics.; assay type: functional
[7] = target: Eukaryotic translation initiation factor 4H (Homo sapiens, UniProt Q15056); assay: eIF4H binding inhibition – biochemical, uHTS, fluorescence polarization, translation initiation inhibitor project, primary screen (AID 2012)
[8] = target: T4, RNA-binding protein pos-1 (Caenorhabditis elegans, UniProt G5EF15); assay: disruptors of C. elegans POS-1 RNA interaction – biochemical, fluorescence polarization, dose response (AID 1964);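 further: purified POS-1 fused to maltose binding protein made in E. coli; potency of compounds blocking POS-1 binding to fluorescent RNA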
T4 sequence (G5EF15 whole entry): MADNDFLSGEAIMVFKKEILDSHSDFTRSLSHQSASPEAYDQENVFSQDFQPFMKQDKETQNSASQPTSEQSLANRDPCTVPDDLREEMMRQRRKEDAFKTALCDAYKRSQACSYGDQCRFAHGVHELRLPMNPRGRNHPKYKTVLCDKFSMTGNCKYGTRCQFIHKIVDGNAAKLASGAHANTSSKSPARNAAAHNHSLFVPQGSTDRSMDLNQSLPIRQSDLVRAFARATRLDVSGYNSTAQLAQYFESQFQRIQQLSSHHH

[9] = target: T5, Zinc finger protein mex-5 (Caenorhabditis elegans, UniProt Q9XUB2); assay: potency of MEX-5 RNA-binding blockers – biochemical, C. elegans, fluorescence polarization, dose response (AID 1960)
T5 sequence (Q9XUB2 whole entry): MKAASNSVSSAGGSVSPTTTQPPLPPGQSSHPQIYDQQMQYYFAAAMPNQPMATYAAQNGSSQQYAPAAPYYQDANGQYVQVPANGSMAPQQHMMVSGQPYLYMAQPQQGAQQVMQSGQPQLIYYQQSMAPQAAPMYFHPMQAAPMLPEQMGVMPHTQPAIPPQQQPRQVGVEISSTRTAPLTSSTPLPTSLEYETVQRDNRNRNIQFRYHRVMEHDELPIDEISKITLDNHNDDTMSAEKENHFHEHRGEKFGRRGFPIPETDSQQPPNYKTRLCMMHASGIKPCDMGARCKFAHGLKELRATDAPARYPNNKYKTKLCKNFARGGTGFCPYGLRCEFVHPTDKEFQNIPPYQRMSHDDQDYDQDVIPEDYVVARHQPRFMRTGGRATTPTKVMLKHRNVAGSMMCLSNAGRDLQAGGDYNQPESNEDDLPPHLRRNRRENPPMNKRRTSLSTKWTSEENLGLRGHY

[10] = target: Polyadenylate-binding protein 1 (Homo sapiens, UniProt P11940); assay: blockers of PABP interaction with poly(A) – biochemical, fluorescence polarization, […] (AID 2014)
Aminopeptidase N = target: T6, Aminopeptidase N (Plasmodium falciparum FcB1/Columbia, UniProt O96935); assay: malaria alanyl aminopeptidase activity blockers – biochemical, fluorogenic H-Leu-NHMec substrate, 1536-well (AID 1445); set-up: species or system Plasmodium falciparum 3D7, 3D7
T6 sequence (O96935 whole entry): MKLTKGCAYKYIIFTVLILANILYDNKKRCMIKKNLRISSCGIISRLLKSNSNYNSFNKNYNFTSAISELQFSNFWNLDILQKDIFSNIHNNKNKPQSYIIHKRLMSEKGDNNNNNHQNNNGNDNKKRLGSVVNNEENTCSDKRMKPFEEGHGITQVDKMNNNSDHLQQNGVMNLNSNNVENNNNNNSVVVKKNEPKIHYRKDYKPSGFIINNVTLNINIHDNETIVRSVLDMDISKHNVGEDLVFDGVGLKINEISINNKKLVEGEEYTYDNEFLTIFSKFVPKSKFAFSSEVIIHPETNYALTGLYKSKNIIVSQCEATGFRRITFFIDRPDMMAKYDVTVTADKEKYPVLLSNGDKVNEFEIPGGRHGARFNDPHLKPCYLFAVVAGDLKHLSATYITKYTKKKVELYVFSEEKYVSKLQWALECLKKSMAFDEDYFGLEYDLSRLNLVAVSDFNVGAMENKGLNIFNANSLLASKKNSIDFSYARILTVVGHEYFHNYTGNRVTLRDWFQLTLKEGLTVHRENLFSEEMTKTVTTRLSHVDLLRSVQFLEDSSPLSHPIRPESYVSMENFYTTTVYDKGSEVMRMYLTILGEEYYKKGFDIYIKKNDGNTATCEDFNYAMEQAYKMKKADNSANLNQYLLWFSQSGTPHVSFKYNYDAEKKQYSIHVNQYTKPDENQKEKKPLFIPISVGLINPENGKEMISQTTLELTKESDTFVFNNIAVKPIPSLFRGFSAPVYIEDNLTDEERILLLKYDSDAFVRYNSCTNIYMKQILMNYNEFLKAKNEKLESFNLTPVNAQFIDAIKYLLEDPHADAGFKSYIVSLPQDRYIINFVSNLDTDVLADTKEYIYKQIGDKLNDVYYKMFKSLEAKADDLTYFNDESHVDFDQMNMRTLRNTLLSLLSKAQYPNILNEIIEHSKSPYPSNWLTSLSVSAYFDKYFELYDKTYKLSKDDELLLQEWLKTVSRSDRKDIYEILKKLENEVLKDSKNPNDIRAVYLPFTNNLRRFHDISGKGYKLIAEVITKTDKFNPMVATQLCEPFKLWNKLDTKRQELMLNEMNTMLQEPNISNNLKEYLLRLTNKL

[11] = luciferase reporter signal suppression in cells – H4 neuroglioma cells, luminescence, dose response (AID 1990); assay type: functional, cell-based
[12] = Luminescence Cell-Based Dose Response HTS to Identify Inhibitors of 5'UTR Stem-Loop Driven Prion Protein mRNA Translation in H4 Neuroglioblastoma Cells. [Related pubchem assays: 1827 (Project Summary), 1813 (Primary HTS)]; assay type: functional
[13] = alpha-synuclein stem-loop luciferase translation blockers – H4 neuroglioma cells, luminescence, confirmation (AID 1988); assay type: functional, cell-based
[14] = HEK-293T cell viability reduction – luminescence, B-cell screen hits, cytotoxicity control for BCR NF-kB inhibitor project, dose response (AID 489021); assay type: functional, cell-based;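 further: HEK-293T cells carrying an NF-kB luciferase reporter; cells exposed to compound for about 14 hours before viability readout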
[15] = target: G-protein coupled receptor 35 (Homo sapiens, UniProt Q9HC97); assay: inhibition of zaprinast-stimulated GPR35 beta-arrestin translocation – imaging, U2OS, beta-arrestin-GFP, zaprinast agonist, primary screen (AID 2058); assay type: functional;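 further: antagonist potency meaning inhibition of agonist-induced arrestin redistribution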
[16] = Luminescence Cell-Based Dose Retest to Confirm Inhibitors of Cancer Stem Cells. [Related pubchem assays (depositor defined):AID2717, AID2721]; assay type: functional; conditions: Homo sapiens
HeLa = assay: viability loss in HeLa cells – cell-based, 24 h, cherry-picked samples, cytotoxicity control, dose response (AID 504726); assay type: functional; conditions: Homo sapiens;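 further: potency for cytotoxicity as loss of luminescence signal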
Cytochrome P450 2C19 = Cytochrome P450 2C19 (Homo sapiens, UniProt P33261); assay: Cytochrome panel assay with activity outcomes. Panel member name: p450-cyp2c19 Compounds with AC50 equal or less than 10 uM are considered active; assay type: functional
Sequence of Cytochrome P450 2C19 (P33261 whole entry): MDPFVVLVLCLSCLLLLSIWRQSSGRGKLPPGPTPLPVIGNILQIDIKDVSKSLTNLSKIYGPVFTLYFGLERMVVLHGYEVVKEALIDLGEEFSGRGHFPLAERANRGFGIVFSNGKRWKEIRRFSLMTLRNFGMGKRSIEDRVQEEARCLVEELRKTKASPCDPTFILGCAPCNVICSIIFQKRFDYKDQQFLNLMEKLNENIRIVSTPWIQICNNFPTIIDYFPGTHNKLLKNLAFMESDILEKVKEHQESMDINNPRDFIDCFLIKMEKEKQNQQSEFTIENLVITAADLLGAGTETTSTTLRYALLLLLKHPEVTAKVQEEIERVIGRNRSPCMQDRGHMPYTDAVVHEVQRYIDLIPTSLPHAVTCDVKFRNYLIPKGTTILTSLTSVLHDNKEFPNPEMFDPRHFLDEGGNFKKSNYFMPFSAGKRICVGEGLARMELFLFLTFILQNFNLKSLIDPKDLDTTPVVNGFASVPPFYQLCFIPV

Sequence of Luciferin 4-monooxygenase (P08659 whole entry): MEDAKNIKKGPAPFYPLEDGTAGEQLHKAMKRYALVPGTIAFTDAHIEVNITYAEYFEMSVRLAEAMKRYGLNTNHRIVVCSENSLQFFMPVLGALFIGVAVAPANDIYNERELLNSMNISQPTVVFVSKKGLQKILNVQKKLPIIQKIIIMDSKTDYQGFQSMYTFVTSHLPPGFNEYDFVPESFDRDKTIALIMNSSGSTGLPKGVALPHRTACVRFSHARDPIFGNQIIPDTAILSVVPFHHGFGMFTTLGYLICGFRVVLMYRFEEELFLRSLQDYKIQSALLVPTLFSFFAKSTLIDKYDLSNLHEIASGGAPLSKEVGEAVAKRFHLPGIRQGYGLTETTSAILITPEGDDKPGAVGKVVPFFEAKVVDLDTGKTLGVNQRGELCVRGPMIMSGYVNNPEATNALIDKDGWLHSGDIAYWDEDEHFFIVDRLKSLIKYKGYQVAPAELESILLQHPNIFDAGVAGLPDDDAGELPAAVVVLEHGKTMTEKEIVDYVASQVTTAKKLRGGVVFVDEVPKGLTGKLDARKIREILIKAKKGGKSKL
Sequence of Polyadenylate-binding protein 1 (P11940 whole entry): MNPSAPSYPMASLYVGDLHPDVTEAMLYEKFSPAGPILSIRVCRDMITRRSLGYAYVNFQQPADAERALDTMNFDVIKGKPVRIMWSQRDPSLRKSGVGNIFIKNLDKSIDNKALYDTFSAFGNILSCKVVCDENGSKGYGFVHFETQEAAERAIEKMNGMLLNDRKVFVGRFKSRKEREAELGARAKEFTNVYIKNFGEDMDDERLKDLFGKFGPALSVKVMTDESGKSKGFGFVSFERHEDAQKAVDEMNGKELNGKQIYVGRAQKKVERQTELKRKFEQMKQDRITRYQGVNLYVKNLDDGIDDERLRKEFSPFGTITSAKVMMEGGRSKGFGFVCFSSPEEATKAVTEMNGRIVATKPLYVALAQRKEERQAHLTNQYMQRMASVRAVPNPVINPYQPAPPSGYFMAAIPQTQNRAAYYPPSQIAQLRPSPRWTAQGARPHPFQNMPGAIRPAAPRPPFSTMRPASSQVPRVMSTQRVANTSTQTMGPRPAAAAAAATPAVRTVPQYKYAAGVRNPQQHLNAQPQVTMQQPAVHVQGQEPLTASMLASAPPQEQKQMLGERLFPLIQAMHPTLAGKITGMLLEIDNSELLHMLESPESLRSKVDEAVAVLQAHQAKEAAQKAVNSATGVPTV
Sequence of Voltage-dependent T-type calcium channel subunit alpha-1H (O95180 whole entry): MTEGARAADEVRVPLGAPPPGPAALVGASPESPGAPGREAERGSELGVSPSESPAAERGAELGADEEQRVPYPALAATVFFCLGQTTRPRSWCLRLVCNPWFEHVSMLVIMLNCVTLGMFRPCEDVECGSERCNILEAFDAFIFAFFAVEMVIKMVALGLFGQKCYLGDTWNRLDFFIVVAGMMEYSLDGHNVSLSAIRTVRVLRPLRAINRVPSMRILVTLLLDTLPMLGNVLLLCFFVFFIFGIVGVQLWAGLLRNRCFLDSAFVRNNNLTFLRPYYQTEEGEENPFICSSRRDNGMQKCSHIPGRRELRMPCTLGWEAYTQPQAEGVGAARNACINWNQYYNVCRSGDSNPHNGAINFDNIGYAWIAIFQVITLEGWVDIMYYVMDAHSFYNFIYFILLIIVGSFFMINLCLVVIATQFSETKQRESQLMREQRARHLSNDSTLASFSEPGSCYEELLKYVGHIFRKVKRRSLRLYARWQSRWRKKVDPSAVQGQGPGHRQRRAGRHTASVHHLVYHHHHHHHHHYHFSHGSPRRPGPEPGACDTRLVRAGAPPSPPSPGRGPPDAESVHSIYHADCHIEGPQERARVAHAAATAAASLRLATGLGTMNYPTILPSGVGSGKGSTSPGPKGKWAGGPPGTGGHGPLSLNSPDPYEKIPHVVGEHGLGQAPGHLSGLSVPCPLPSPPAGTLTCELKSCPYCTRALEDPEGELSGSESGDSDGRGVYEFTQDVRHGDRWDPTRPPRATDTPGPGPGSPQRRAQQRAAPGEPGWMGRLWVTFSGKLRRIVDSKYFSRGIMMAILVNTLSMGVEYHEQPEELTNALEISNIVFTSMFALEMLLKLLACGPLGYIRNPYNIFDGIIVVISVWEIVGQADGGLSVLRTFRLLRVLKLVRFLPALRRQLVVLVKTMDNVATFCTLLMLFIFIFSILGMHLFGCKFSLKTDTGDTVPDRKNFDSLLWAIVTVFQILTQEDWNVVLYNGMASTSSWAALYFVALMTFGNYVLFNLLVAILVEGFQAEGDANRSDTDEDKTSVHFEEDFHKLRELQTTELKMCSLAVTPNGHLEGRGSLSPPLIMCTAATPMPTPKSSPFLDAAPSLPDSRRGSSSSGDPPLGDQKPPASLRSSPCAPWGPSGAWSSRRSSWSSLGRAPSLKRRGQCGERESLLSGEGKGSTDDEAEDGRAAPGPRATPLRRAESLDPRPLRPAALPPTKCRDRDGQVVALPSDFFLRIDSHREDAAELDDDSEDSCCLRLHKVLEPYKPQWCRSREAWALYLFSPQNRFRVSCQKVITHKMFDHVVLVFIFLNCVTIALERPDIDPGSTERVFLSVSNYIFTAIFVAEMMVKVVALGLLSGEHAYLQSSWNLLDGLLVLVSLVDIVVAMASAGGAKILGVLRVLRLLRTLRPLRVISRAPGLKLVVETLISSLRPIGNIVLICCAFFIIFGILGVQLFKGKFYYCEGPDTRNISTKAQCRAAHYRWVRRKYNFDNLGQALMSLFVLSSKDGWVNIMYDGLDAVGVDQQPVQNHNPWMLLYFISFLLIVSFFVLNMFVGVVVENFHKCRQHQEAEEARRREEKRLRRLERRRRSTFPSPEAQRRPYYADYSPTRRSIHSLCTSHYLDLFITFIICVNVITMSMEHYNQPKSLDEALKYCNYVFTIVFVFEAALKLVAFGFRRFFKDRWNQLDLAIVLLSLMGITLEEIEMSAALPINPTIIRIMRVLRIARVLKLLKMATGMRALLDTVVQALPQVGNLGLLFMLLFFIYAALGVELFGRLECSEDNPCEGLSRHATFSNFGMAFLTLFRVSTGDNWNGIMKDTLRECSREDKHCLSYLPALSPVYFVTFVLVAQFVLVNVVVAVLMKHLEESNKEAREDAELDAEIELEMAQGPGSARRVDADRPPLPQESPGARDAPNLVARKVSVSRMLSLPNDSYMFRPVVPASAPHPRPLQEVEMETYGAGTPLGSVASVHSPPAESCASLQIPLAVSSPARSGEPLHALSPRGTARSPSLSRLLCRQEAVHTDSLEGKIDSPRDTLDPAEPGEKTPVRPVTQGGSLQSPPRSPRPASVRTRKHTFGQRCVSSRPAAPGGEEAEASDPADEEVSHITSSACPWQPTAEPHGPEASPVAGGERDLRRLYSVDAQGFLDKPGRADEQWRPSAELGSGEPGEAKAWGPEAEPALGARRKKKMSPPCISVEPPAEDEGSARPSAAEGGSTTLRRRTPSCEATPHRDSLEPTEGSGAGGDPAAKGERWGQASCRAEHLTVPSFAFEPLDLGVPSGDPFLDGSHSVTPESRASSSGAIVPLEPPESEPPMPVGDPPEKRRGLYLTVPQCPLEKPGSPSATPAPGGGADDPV
Sequence of Neurotensin receptor type 1 (P30989 whole entry): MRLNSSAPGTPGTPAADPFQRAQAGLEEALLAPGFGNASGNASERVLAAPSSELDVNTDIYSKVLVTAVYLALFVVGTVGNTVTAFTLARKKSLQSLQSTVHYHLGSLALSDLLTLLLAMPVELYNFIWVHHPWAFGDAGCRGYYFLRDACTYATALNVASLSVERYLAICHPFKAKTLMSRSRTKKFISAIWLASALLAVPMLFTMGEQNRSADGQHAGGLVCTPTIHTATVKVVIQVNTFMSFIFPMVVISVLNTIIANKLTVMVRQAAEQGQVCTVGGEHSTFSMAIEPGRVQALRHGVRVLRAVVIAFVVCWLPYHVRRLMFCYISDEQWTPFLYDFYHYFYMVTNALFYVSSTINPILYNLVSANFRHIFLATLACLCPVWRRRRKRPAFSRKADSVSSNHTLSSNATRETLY
Sequence of G-protein coupled receptor 35 (Q9HC97 whole entry): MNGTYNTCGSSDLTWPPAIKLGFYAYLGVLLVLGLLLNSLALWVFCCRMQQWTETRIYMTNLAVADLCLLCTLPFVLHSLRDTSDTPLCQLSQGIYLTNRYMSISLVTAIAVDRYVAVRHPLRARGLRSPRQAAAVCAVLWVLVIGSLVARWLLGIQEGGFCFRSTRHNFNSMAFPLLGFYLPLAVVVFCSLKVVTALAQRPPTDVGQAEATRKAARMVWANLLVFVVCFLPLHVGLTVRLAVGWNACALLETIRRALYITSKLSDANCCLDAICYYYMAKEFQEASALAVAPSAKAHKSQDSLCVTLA

## O=C(Nc1ccc(N2CCCC2)c(Cl)c1)c1ccco1
[1]
  EC50: < 0.2 µM (active)
HT-1080
  EC50: > 50 µM (not active)

## O=C(Nc1cccc(NC(=O)c2cccs2)c1)c1ccc(Br)cc1
[2]
  IC50: 6.65 µM (active)
[3]
  IC50: > 111 µM (not active)

## COc1cc2c3nnc(-c4ccc(F)cc4)c-3cn(Cc3cccc(F)c3)c2cc1OC
[4]
  EC50: 3.59 µM (active)

## COc1ccc(O)c(C(=O)CC(=O)c2ccccc2)c1
[1]
  EC50: 5.71 µM (active)
HT-1080
  EC50: > 50 µM (not active)

## CCOC(=O)c1cnn(-c2ccccc2)c1-n1cccc1C(=O)C(=O)Nc1ccc(F)cc1
[5]
  EC50: 6.1 µM (active)

## CCC(=O)Nc1ccc(C(=O)Nc2ccc3c(c2)C(=O)N(CC2CCCO2)C3=O)cc1 (stereo unspecified)
[2]
  IC50: 6.54 µM (active)
[3]
  IC50: > 111 µM (not active)

## CCOC(=O)CSc1snnc1-c1ccccc1
Coagulation factor XII
  IC50: > 50 µM (inactive)

## COc1ccc(NC(=O)c2ccc(C(=O)Nc3ccc(OC)cc3OC)cc2)c(OC)c1
[2]
  IC50: 19.2 µM (not active)
[3]
  IC50: > 111 µM (not active)

## CCOc1ccc(-c2cnc3n2CCC3)cc1
[6]
  CC50: > 40 µM (active)

## c1ccc(-c2noc(CSc3nnnn3-c3ccccc3)n2)cc1
[5]
  EC50: 8.32 µM (active)

## CCCSc1nnc(NC(=O)Nc2ccccc2)s1
[7]
  IC50: > 100 µM (inactive)
[8]
  EC50: > 300 µM (not active)
[9]
  EC50: > 300 µM (not active)
[10]
  IC50: > 100 µM (inactive)

## CCN(CC)Cc1c(O)ccc2c(C)c(CC(=O)OC)c(=O)oc12
[7]
  IC50: > 100 µM (inactive)
Aminopeptidase N
  IC50: 40.4 µM (active)
[10]
  IC50: > 100 µM (inactive)

## Cc1nc2cc(-c3cccc(F)c3)nn2c(C)c1CCC(=O)N1CCC2(CC1)OCCO2
[11]
  EC50: 10.1 µM (active)
[12]
  EC50: 16.6 µM (active)
[13]
  EC50: 15.4 µM (active)
[14]
  IC50: > 80 µM (inactive)

## CCOC(=O)C1CCN(c2ncnc3c2cnn3-c2ccc(Cl)cc2)CC1
[14]
  IC50: > 80 µM (inactive)

## CC(C)CSC1=NSC2=NC(=O)/C(=C\c3coc4ccccc4c3=O)C(=N)N12
[15]
  IC50: 23.3 µM (inactive)

## CCN1C(=O)c2cccc3c(S(=O)(=O)N4CCC(C)CC4)ccc1c23
[14]
  IC50: > 80 µM (inactive)

## Cc1cc(C)c2c(c1)/C(=C/C(=O)c1ccc(Br)s1)C(=O)N2
[16]
  AC50: 2.22 µM (active)
[4]
  EC50: 6.24 µM (active)

## Cc1ccc(NC(=O)c2ccc(Cl)c(S(=O)(=O)N3CCc4ccccc43)c2)nc1
HeLa
  AC50: 342 µM (active)

## O=C1NC(=O)N(Cc2ccc(F)cc2)C(=O)/C1=C/Nc1ccc(C(=O)O)cc1
Coagulation factor XII
  IC50: > 50 µM (inactive)

## Cc1ccc(/C(O)=C/C2=NCC(C)NC2=O)cc1 (stereo unspecified)
[1]
  EC50: > 100 µM (not active)
HT-1080
  EC50: > 50 µM (not active)
Cytochrome P450 2C19
  AC50: inconclusive
